Assays:
[1] = molecular target: T1, human LPA1 (Homo sapiens, UniProt Q92633); assay: LPA1 functional antagonist assay (LPA-induced calcium flux); assay type: cell-based; conditions: read-out: hLPA1 IC50
T1 construct: expressed in transfected cells; host or cells: Chinese hamster ovary (CHO) cells
In short: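 CHO cells overexpressing human LPA1, loaded with calcium dye 30 min at 37° C, were preincubated 20 min at room temperature with compound (0.08 nM–5 μM, 0.5% DMSO) in HBSS/20 mM HEPES/0.1% fatty acid-free BSA.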

[2] = system: CD-1 female mice; assay: LPA challenge with plasma histamine evaluation (acute in vivo histamine assay); parameters: species or system mouse; conditions: 3 mg/kg dose
Method: LPA Challenge with Plasma Histamine Evaluation.
Compound is dosed orally p.o. 2 hours to CD-1 female mice prior to the LPA challenge. The mice are then dosed via tail vein (IV) with 0.15 mL of LPA in 0.1% BSA/PBS ([…]). Exactly 2 minutes following the LPA challenge, the mice are euthanized by decapitation and the trunk blood is collected. These samples are collectively centrifuged and individual 75 μL samples are frozen at −20° C. until the time of the histamine assay.
The plasma histamine analysis was run by standard EIA (Enzyme Immunoassay) methods. Plasma samples were thawed and diluted 1:30 in 0.1% BSA in PBS. The EIA protocol for histamine analysis as outlined by the manufacturer was followed (Histamine EIA, Oxford Biomedical Research, EA #31).
The LPA used in the assay is formulated as follows: LPA (1-oleoyl-2-hydroxy-sn-glycero-3-phosphate (sodium salt), 857130P, Avanti Polar Lipids) is prepared in 0.1% BSA/PBS for total concentration of 2 μg/μL. 13 mg of LPA is weighed and 6.5 mL 0.1% BSA added, vortexed and sonicated for ˜1 hour until a clear solution is achieved.

[3] = system: nerve-injured mice; conditions: pretreatment; cited from earlier work
[4] = system: human foetal lung fibroblasts; conditions: cited from earlier work
[5] = system: UUO mice; conditions: UUO mice treated with the antagonist; cited from earlier work
[6] = system: mouse epithelial renal cell line, MCT; conditions: MCT cells, co-treatment with LPA; cited from earlier work
[7] = system: pancreatic cancer cell lines; conditions: cited from earlier work

T1 sequence (Q92633 whole entry): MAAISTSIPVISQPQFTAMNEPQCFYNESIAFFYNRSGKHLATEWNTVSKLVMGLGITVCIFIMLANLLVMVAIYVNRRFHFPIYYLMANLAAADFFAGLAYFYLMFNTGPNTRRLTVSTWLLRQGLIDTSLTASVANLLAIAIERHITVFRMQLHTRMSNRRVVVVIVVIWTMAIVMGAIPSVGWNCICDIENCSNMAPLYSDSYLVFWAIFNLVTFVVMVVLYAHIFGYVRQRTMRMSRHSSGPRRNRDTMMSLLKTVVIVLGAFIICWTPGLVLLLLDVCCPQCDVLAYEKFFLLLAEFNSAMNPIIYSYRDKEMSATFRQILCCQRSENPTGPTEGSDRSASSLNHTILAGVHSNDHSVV

C[C@H](C1CC1)N(C)C(=O)OCc1c(-c2ccc(O[C@H]3CCC[C@H](C(=O)O)C3)cc2)nnn1C [Example 51, (1S,3S)-3-(4-(5-(((((R)-1-cyclopropylethyl)(methyl)carbamoyl)oxy)methyl)-1-methyl-1H-1,2,3-triazol-4-yl)phenoxy)cyclohexane-1-carboxylic acid]
IC50 [1]: 0.024 µM | In vivo acute histamine assay: % histamine [2]: −73%

C[C@@H](N)[C@H]1CC[C@H](C(=O)Nc2ccncc2)CC1 [Example Y-27632]
allodynia and hyperalgesia [3]: completely abolished

Cc1noc(-c2ccc(CSCCC(=O)O)cc2)c1NC(=O)OC(C)c1ccccc1Cl (centres unmarked) [Ki16425]
chemotaxis of human foetal lung fibroblasts induced by BAL from IPF patients [4]: blocked | development of renal fibrosis in UUO mice [5]: closely resembled the profile of LPA1 (−/−) mice | LPA-induced increase in expression of CTGF [6]: almost completely suppressed | LPA-induced and ascites-induced invasion activity ([7]; highly peritoneal metastatic pancreatic cancer cell line): blocked | in vitro migration in response to LPA and peritoneal fluid (ascites) from pancreatic cancer patients ([7]; pancreatic cancer cell lines): effectively blocked
